Laboratory results: PubChem BioAssay (NCI)
Several values for one entry are separate records, joined by “and”; a condition that tells them apart may be missing. Identical values can stand only once.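 Assay format: 96-well plates, 48-hour exposure. The concentration for 50% growth inhibition is given as GI50. TGI marks complete inhibition of growth.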

Legend:
Test in all cases: NCI anticancer screen, dose series, 48 h
U251 CNS = test system: U251 CNS
SR leukemia = test system: SR leukemia
SF-295 CNS = test system: SF-295 CNS
HCC-2998 colon = test system: HCC-2998 colon
OVCAR-5 ovarian = test system: OVCAR-5 ovarian
MDA-N = test system: MDA-N
MALME-3M melanoma = test system: MALME-3M melanoma
COLO 205 colon = test system: COLO 205 colon
SF-268 CNS = test system: SF-268 CNS
A549 NSCLC = test system: A549 NSCLC
T-47D breast = test system: T-47D breast
M14 melanoma = test system: M14 melanoma
PC-3 prostate = test system: PC-3 prostate

Structure (SMILES) | TGI (U251 CNS) [µM] | TGI (SR leukemia) | TGI (SF-295 CNS) [µM] | TGI (HCC-2998 colon) [µM] | TGI (OVCAR-5 ovarian) [µM] | TGI (MDA-N) [µM] | TGI (MALME-3M melanoma) [µM] | TGI (COLO 205 colon) [µM] | TGI (SF-268 CNS) [µM] | TGI (A549 NSCLC) [µM] | TGI (T-47D breast) [µM] | TGI (M14 melanoma) [µM] | TGI (PC-3 prostate) [µM] | GI50 (COLO 205 colon) [µM]
COc1ccc2c(c1)C(=O)[C@@](Nc1ccc(C=O)cc1)(OC)[C@@](OC)(c1ccc([N+](=O)[O-])cc1)O2 | > 10 | > 10 µM | > 10 | > 10 | > 10 | > 10 | > 10 | > 10 | > 10 | > 10 | > 10 | > 10 | > 10 | 
C=COC(=O)N1C2CCCC(Cl)(C(C)=O)C1CC2 (configuration not stated) | > 100 | > 100 µM | > 100 | > 100 | > 100 | > 100 | > 100 | > 100 | > 100 | > 100 | > 100 | > 100 | > 100 | 
CC1(C)CN=C(Nc2ccc(F)c(Cl)c2)S1 | > 100 | > 100 µM | > 100 | > 100 | > 100 | > 100 | > 100 | > 100 | > 100 | > 100 | > 100 | > 100 | > 100 | 
CC1OC(OC2C[C@](O)(C(=O)CBr)Cc3c(O)c4c(c(O)c32)C(=O)c2ccccc2C4=O)C(F)C(O)C1O (some centres not stated) | > 74.7 | 3.79 µM | 27.5 | > 100 | > 59.7 | 44.7 | 16.5 | 28.8 | 73.7 | 30 | > 82 | 26.1 | > 68.2 | 
COc1ccc(S(=O)(=O)Nc2ccc(-c3csc(N4C(=O)/C(=C/c5cccs5)N=C4c4ccccc4)n3)cc2)cc1Cl | > 100 | > 100 µM | > 100 | > 100 | > 100 | > 100 | 90.5 | > 100 | > 100 | > 100 | 85 | > 100 | > 100 | 
O=C1CSC(c2cccc(Oc3ccccc3)c2)N1c1cccc(Cl)c1Cl (configuration not stated) | 39.1 | 53.8 µM | > 100 | 26.2 | > 100 | 58.7 | 82.9 | 44.1 | 60 | > 100 | > 100 | > 100 | 95.3 | 
COC1C(OC(C)=O)CC(=O)OC(C)C/C=C/C=C\C(O)C(C)CC(CC=O)C1OC1OC(C)C(OC2CC(C)(O)C(OC(=O)CC(C)C)C(C)O2)C(N(C)C)C1O (configuration not stated) | > 100 | 69 µM and 38.7 µM | > 100 | > 100 | > 100 | > 100 | > 100 | > 100 | > 100 | > 100 | > 100 | > 100 | > 100 | 
OC1(C2(c3ccc(Cl)cc3)CCCC2)c2ccccc2C2=NCCN21 (configuration not stated) | 28.2 | 37.9 µM | 30.7 | 4 | 29.5 | 29.7 | 34.7 | 23.9 | 35.1 | 31.3 | 22 | 28.6 | 25.1 | 
CCOC(=O)/C=C(/C(=O)OCC)n1ccc(=O)n(CC(=O)OCC)c1=O | 8.03 | 3.61 µM | 28.1 | 5.04 | 3.19 | 8.31 | 1.71 | 1.63 | 10.9 | 16.8 | 2.55 | 2.73 | 3.22 | 0.361
C[C@H]1[C@H](C)CC[C@]2(C(=O)OC3OC(CO)C(O)C(O)C3O)CC[C@]3(C)C(=CC[C@@H]4[C@@]5(C)C[C@@H](O)[C@@H]6OC(=O)c7cc(O)c(O)c(O)c7-c7c(cc(O)c(O)c7O)C(=O)OC[C@]6(CO)[C@@H]5CC[C@]43C)[C@H]12 (some centres not stated) | 34.7 | 73.3 µM | > 91 | > 100 | > 100 | 51.1 | > 100 | > 100 | > 100 | > 100 | > 100 | > 100 | > 100 | 
COc1ccc2c(c1)c(=O)c1c(NCCCN(C)C)ccc3ncn2c31 | 5.93 | > 44.9 µM | 15.2 | 9.86 | 25.5 | 18.8 | 26 | 18.6 | 16.1 | 14.5 | 32.8 | 12.9 | 15.6 | 
COc1ccc2[nH]c3c(C)c4ncccc4c(C)c3c2c1 | > 10 | > 10 µM | 9.26 | > 10 | > 10 | > 10 | 3.42 | > 10 | > 10 | 4.88 | > 10 | 3.24 | > 10 | 
COC(=O)/C=C/c1cnc2c(c1)oc(=O)n2C | > 100 | > 100 µM | > 100 | > 100 | > 100 | > 100 | > 100 | > 100 | > 100 | > 100 | > 100 | > 100 | > 100 | 
CC1(C)CC[C@]2(C(=O)O)CC[C@]3(C)C(=CC[C@@H]4[C@@]5(C)CC[C@H](OC6OC(CO)C(O)C(O)C6O)C(C)(C)[C@@H]5CC[C@]43C)[C@@H]2C1 (some centres not stated) | 3.05 | 5.53 µM | 3.2 | 3.18 | 4.12 | 3.54 | 3.16 | 3.21 | 3.51 | 3.08 | 3.55 | 3.12 | 2.96 | 
Fc1cc2nc3n(c2cc1F)C(c1c(Cl)cccc1Cl)SC3 (configuration not stated) | 31.4 | 48.5 µM | 26.2 | 29.3 | 27.7 | 29.5 | 33.8 | 36.3 | 34.4 | 28 | 31.7 | 29 | 31.3 | 
CN(/N=C/c1ccccc1C(=O)O)C1=NCCCCN1 | > 100 | > 100 µM | > 100 | > 100 | > 100 | > 100 | > 100 | > 100 | > 100 | > 100 | > 100 | > 100 | > 100 | 
COC(=O)[C@]1(Cc2ccc3ccccc3c2)CCCCCCN1C(=O)c1ccccc1 | > 46.1 | > 100 µM | > 44.5 | > 49 | > 65 | > 53.5 | > 53.2 | 24.5 | > 54 | > 100 | > 54.3 | > 52.7 | > 45.7 | 
